A short description of data set [1]: miscibility of ionic liquid with working substance water. It is filed as physicochemical.
Data set [2] can be described thus: partial pressure of water over aqueous 2-hydroxyethylammonium formate solution, FTIR spectroscopy in the gas phase. Type of data set: physicochemical. The protocol:
For this purpose, the partial pressure of water over an aqueous 2-hydroxyethylammonium formate solution was determined at a customary phase equilibrium temperature (by means of FTIR spectroscopy in the gas phase).

The structures appear in SMILES notation.

For `CCn1cc[n+](C)c1.O=S(=O)([O-])C(F)(F)F` [ethylmethylimidazolium triflate], the miscibility with water entry in data set [1] is “can be mixed with water”.

With `NCCO.O=CO` [2-hydroxyethylammonium formate], the “factor by which the vapor pressure of water is reduced on dissolution in the ionic liquid” value in data set [2] was 4. Besides, the “partial pressure of water over the solution” value in data set [2] (30.5° C., 84% by weight of 2-hydroxyethylammonium formate and 16% by weight of water, water itself about 40 mbar) is “about 10 mbar”; in data set [2] (34° C., 87% by weight of 2-hydroxyethylammonium formate and 13% by weight of water, water itself about 50 mbar), “about 12 mbar”.

These data come from US9062899B2, “Pairs of working substances for absorption heat pumps, absorption refrigeration machines and heat transformers” (BASF SE, priority 2004, dated 2015).
